Data as given in patent publication US20100137313A1 (ASTRAZENECA AB, priority 2008, published 2010).

Target: S. pneumoniae Topoisomerase IV ATPase (ParE) (Streptococcus pneumoniae serotype 4, UniProt Q59961)
Experiment: S. pneumoniae Topoisomerase IV ATPase inhibition
Type: biochemical
Conditions: values marked * are an average of two or more data points, read-out: % Inh (13 μM) of S. pneumoniae Topoisomerase IV ATPase
Procedure, shortened: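 Malachite green/ammonium molybdate phosphate detection, A650. 1.25 nM ParE, 160 μM ATP, sheared salmon sperm DNA 5 μg/ml, 20 mM Tris pH 8.0, 8.0 mM MgCl2. Controls: 2% DMSO = 0%, 20 μM EDTA = 100% inhibition; IC50 over 10 concentrations.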

S. pneumoniae Topoisomerase IV ATPase (ParE), sequence (Q59961 whole entry): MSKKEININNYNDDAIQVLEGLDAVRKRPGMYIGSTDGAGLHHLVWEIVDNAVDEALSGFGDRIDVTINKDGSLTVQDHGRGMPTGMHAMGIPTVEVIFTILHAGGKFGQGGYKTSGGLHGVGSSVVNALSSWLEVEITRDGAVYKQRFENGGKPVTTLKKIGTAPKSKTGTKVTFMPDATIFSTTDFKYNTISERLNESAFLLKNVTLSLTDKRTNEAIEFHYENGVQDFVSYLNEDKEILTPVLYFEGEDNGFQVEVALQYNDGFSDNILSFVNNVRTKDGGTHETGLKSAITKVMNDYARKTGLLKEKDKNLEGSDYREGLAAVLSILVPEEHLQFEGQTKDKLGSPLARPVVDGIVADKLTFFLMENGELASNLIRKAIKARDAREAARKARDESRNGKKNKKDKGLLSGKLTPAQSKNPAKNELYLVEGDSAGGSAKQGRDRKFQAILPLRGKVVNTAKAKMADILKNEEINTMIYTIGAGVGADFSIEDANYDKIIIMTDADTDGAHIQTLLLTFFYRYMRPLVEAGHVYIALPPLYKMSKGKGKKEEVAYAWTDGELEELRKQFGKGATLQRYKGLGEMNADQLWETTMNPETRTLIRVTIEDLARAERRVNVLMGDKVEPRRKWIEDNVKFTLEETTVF

| Compound | inhibition at 13 µM |
| --- | --- |
| Cc1cc(C(=O)O)nc(-c2cnc(Nc3ccc(F)c(Cl)c3)nc2-n2ccc(C(F)(F)F)n2)n1 [Example 879, 2′-(3-chloro-4-fluorophenylamino)-6-methyl-4′-(3-(trifluoromethyl)-1H-pyrazol-1-yl)-2,5′-bipyrimidine-4-carboxylic acid] | 91% |
| COc1cc(Nc2ncc(-c3cccc(/C=C/C(=O)O)c3)c(-n3nc(C(F)(F)F)cc3C)n2)cc(C(F)(F)F)c1 [Example 880, (E)-3-(3-(2-(3-methoxy-5-(trifluoromethyl)phenylamino)-4-(5-methyl-3-(trifluoromethyl)-1H-pyrazol-1-yl)pyrimidin-5-yl)phenyl)acrylic acid] | 91% |
| COc1cc(Nc2ncc(-c3cncc(C(=O)CS(C)(=O)=O)c3)c(-n3nc(C(F)(F)F)cc3C)n2)cc(C(F)(F)F)c1 [Example 881, 1-(5-(2-(3-methoxy-5-(trifluoromethyl)phenylamino)-4-(5-methyl-3-(trifluoromethyl)-1H-pyrazol-1-yl)pyrimidin-5-yl)pyridin-3-yl)-2-(methylsulfonyl)ethanone] | 97% |
| COc1cc(Nc2ncc(-c3cncnc3)c(-n3nc(C(F)(F)F)cc3C)n2)cc(C(F)(F)F)c1 [Example 882, N-(3-methoxy-5-(trifluoromethyl)phenyl)-4-(5-methyl-3-(trifluoromethyl)-1H-pyrazol-1-yl)-5,5′-bipyrimidin-2-amine] | 100% |
| COc1cc(Nc2ncc(-c3ccc(C(=O)O)s3)c(-n3nc(C(F)(F)F)cc3C)n2)cc(C(F)(F)F)c1 [Example 883, 5-(2-(3-methoxy-5-(trifluoromethyl)phenylamino)-4-(5-methyl-3-(trifluoromethyl)-1H-pyrazol-1-yl)pyrimidin-5-yl)thiophene-2-carboxylic acid] | 99% |
| COc1cc(Nc2ncc(-c3cccnc3)c(-n3nc(C(F)(F)F)cc3C)n2)cc(C(F)(F)F)c1 [Example 884, N-(3-methoxy-5-(trifluoromethyl)phenyl)-4-(5-methyl-3-(trifluoromethyl)-1H-pyrazol-1-yl)-5-(pyridin-3-yl)pyrimidin-2-amine] | 100% |
| COc1cc(Nc2ncc(-c3cnc(OC)nc3)c(-n3nc(C(F)(F)F)cc3C)n2)cc(C(F)(F)F)c1 [Example 885, 2′-methoxy-N-(3-methoxy-5-(trifluoromethyl)phenyl)-4-(5-methyl-3-(trifluoromethyl)-1H-pyrazol-1-yl)-5,5′-bipyrimidin-2-amine] | 100% |
| COc1cc(F)cc(Nc2ncc(-c3ccc(C(=O)O)s3)c(-n3ccc(C(F)(F)F)n3)n2)c1 [Example 887, 5-(2-(3-fluoro-5-methoxyphenylamino)-4-(3-(trifluoromethyl)-1H-pyrazol-1-yl)pyrimidin-5-yl)thiophene-2-carboxylic acid] | 100% |
| N#Cc1cc(-c2cnc(Nc3ccc(F)c(Cl)c3)nc2-n2ccc(C(F)(F)F)n2)ccn1 [Example 890, 4-(2-(3-chloro-4-fluorophenylamino)-4-(3-(trifluoromethyl)-1H-pyrazol-1-yl)pyrimidin-5-yl)picolinonitrile] | 91% |
| COc1cc(F)cc(Nc2ncc(-c3ccc(C(=O)O)o3)c(-n3ccc(C(F)(F)F)n3)n2)c1 [Example 892, 5-(2-(3-fluoro-5-methoxyphenylamino)-4-(3-(trifluoromethyl)-1H-pyrazol-1-yl)pyrimidin-5-yl)furan-2-carboxylic acid] | 100% |
| COc1cc(F)cc(Nc2ncc(-c3cccc(C(=O)O)c3)c(-n3ccc(C(F)(F)F)n3)n2)c1 [Example 893, 3-(2-(3-fluoro-5-methoxyphenylamino)-4-(3-(trifluoromethyl)-1H-pyrazol-1-yl)pyrimidin-5-yl)benzoic acid] | 99% |
| COc1cc(F)cc(Nc2ncc(-c3cnc(OC)c(C(=O)NS(C)(=O)=O)c3)c(-n3ccc(C(F)(F)F)n3)n2)c1 [Example 897, 5-(2-(3-fluoro-5-methoxyphenylamino)-4-(3-(trifluoromethyl)-1H-pyrazol-1-yl)pyrimidin-5-yl)-2-methoxy-N-(methylsulfonyl)nicotinamide] | 100% |
| COc1ncc(-c2cnc(Nc3cc(C)cc(C)c3)nc2-n2ccc(C(F)(F)F)n2)cc1C(=O)NS(C)(=O)=O [Example 898, 5-(2-(3,5-dimethylphenylamino)-4-(3-(trifluoromethyl)-1H-pyrazol-1-yl)pyrimidin-5-yl)-2-methoxy-N-(methylsulfonyl)nicotinamide] | 100% |
| COc1ncc(-c2cnc(Nc3cc(C)cc(C)c3)nc2-n2nc(C(F)(F)F)cc2C)cc1C(=O)NS(C)(=O)=O [Example 899, 5-(2-(3,5-dimethylphenylamino)-4-(5-methyl-3-(trifluoromethyl)-1H-pyrazol-1-yl)pyrimidin-5-yl)-2-methoxy-N-(methylsulfonyl)nicotinamide] | 97% |
| COc1cc(F)cc(Nc2ncc(-c3cnc(OC)c(C(=O)NS(C)(=O)=O)c3)c(-n3nc(C(F)(F)F)cc3C)n2)c1 [Example 900, 5-(2-(3-fluoro-5-methoxyphenylamino)-4-(5-methyl-3-(trifluoromethyl)-1H-pyrazol-1-yl)pyrimidin-5-yl)-2-methoxy-N-(methylsulfonyl)nicotinamide] | 100% |
| COc1cc(Nc2ncc(-c3cnc(OC)c(C(=O)NS(C)(=O)=O)c3)c(-n3ccc(C(F)(F)F)n3)n2)cc(OC)c1 [Example 901, 5-(2-(3,5-dimethoxyphenylamino)-4-(3-(trifluoromethyl)-1H-pyrazol-1-yl)pyrimidin-5-yl)-2-methoxy-N-(methylsulfonyl)nicotinamide] | 97% |
| COc1cc(Nc2ncc(-c3cnc(OC)c(C(=O)NS(C)(=O)=O)c3)c(-n3nc(C(F)(F)F)cc3C)n2)cc(C(F)(F)F)c1 [Example 902, 2-methoxy-5-(2-(3-methoxy-5-(trifluoromethyl)phenylamino)-4-(5-methyl-3-(trifluoromethyl)-1H-pyrazol-1-yl)pyrimidin-5-yl)-N-(methylsulfonyl)nicotinamide] | 97% |
| COc1cc(Nc2ncc(-c3cnc(OC)c(C(=O)NS(C)(=O)=O)c3)c(-n3nc(C(F)(F)F)cc3C)n2)cc(OC)c1 [Example 909, 5-(2-(3,5-dimethoxyphenylamino)-4-(5-methyl-3-(trifluoromethyl)-1H-pyrazol-1-yl)pyrimidin-5-yl)-2-methoxy-N-(methylsulfonyl)nicotinamide] | 100% |
| COc1cc(Cl)c(C)cc1Nc1ncc(-c2cccc(/C=C/C(=O)O)c2)c(NCCCN(C)C)n1 [Example 911, (E)-3-(3-(2-(4-chloro-2-methoxy-5-methylphenylamino)-4-(3-(dimethylamino)propylamino)pyrimidin-5-yl)phenyl)acrylic acid] | 58% |
| COCCCNc1nc(Nc2ccc(F)c(Cl)c2)ncc1-c1nc(C(=O)O)cs1 [Example 912, 2-(2-(3-chloro-4-fluorophenylamino)-4-(3-methoxypropylamino)pyrimidin-5-yl)thiazol-4-carboxylic acid] | 99% |
| COc1cc(Nc2ncc(-c3cncc(C(=O)O)c3)c(-n3nc(C(F)(F)F)cc3C)n2)cc(C(F)(F)F)c1 [Example 913, 5-(2-(3-methoxy-5-(trifluoromethyl)phenylamino)-4-(5-methyl-3-(trifluoromethyl)-1H-pyrazol-1-yl)pyrimidin-5-yl)nicotinic acid] | 100% |
